Measured values: PubChem BioAssay (NCI)
Values after ≈ are worked out from the molar mass of the structure shown. Values joined by “and” are separate entries in the source; they are usually repeats but may differ in a detail not shown here. Equal entries are not always repeated.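 Cells were grown in 96-well plates and exposed to each compound for 48 hours at five concentrations; endpoints were interpolated linearly between bracketing concentrations, or set to the highest concentration if not reached. GI50: concentration for 50% inhibition of growth. Definition used: TGI = concentration required for complete inhibition of growth.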

What was measured:
Assay in all cases: NCI anticancer screen, dose series, 48 h
UACC-62 melanoma = tested on: UACC-62 melanoma
MOLT-4 leukemia = tested on: MOLT-4 leukemia
SR leukemia = tested on: SR leukemia
786-0 renal = tested on: 786-0 renal
SNB-19 CNS = tested on: SNB-19 CNS
HOP-62 NSCLC = tested on: HOP-62 NSCLC
HCC-2998 colon = tested on: HCC-2998 colon
OVCAR-4 ovarian = tested on: OVCAR-4 ovarian
MDA-MB-231 breast = tested on: MDA-MB-231 breast
T-47D breast = tested on: T-47D breast

Compound | TGI (UACC-62 melanoma) | TGI (MOLT-4 leukemia) | TGI (SR leukemia) | TGI (786-0 renal) | TGI (SNB-19 CNS) | TGI (HOP-62 NSCLC) | TGI (HCC-2998 colon) | TGI (OVCAR-4 ovarian) | TGI (MDA-MB-231 breast) | GI50 (UACC-62 melanoma) | GI50 (MOLT-4 leukemia) | GI50 (SR leukemia) | GI50 (786-0 renal) | GI50 (OVCAR-4 ovarian) | TGI (T-47D breast) | GI50 (MDA-MB-231 breast) | GI50 (HOP-62 NSCLC)
O=C1OCc2nc3c(c(-c4ccccc4C(F)(F)F)c21)C(=O)OC3 | > 100 µM | > 100 µM | > 100 µM | > 100 µM | > 100 µM | > 100 µM | > 100 µM |  |  |  |  |  |  |  |  |  | 
Cc1cc2c3ccccc3n3c2c2c1OC1(C)CCC(C2C1)C3(C)C (stereo not given) | > 25 µM | > 25 µM | > 25 µM | > 25 µM | > 25 µM | > 25 µM | > 25 µM | > 25 µM |  |  |  |  |  |  |  |  | 
C=C1C(=O)C23C(O)CC4C(C)(C)CCC(O)C4(C)C2CC(OC(C)=O)C1[C@H]3O (stereo not given in full) |  | 8.08 µM | > 41.1 µM | 6.82 µM | 30.9 µM | 28.2 µM | 14.8 µM |  | 14.6 µM |  |  |  |  |  |  |  | 
O=C1c2c(c3c4ccccc4n(CC4CO4)c3c3[nH]c4ccccc4c23)C(=O)N1Cc1ccccc1 (stereo not given) | > 100 µM | > 100 µM | > 100 µM | > 100 µM | > 100 µM | > 100 µM | > 100 µM | > 100 µM |  |  |  |  |  |  |  |  | 
COc1cc2c(cc1O)CCN[C@@]21CS[C@H]2c3c(OC(C)=O)c(C)c4c(c3C(COC1=O)N1C2C2NC(Cc3cc(C)c(OC)c(O)c32)[C@@H]1O)OCO4 (stereo not given in full) | 4.5 ng/mL |  |  | 30.8 nM and 0.0045 µg/mL | 11.4 µM | < 10 nM and 3.8e-07 µg/mL and 0.0045 µg/mL |  | < 10 nM and 0.0045 µg/mL | < 0.01 µM | 4.5 ng/mL | 4.5 ng/mL (≈ 6.02 nM) | 4.5 ng/mL (≈ 6.02 nM) | 4.5 ng/mL | 4.5 ng/mL | 0.0453 µM |  | 
NN=C1/C(=C\c2ccccc2)CCC/C1=C/c1ccccc1 | > 100 µM | 37.4 µM |  | > 100 µM | > 100 µM | > 100 µM | > 100 µM | > 100 µM |  |  |  |  |  |  |  |  | 
COc1ccc(N2C(=O)[C@@H]3[C@@H]4CC(C)CC[C@@H]4c4c([nH]c5ccccc45)[C@@H]3C2=O)cc1 (stereo not given in full) | 40.8 µM | 61.3 µM | > 25.9 µM | 20.6 µM | 29.6 µM | 32.8 µM | > 100 µM | 37 µM |  |  |  |  |  |  |  |  | 
COc1ccc2c(Cl)cc(NC(=S)Nc3ccccc3)nc2c1 | 46.4 µM | 72.2 µM | 74.5 µM | 62.7 µM | 46.5 µM | > 100 µM |  | > 100 µM | 56.4 µM |  |  |  |  |  | 45.3 µM |  | 
COc1cccc(NC(=O)/C(CS(=O)(=O)CCC(C(C)=O)C(C)=O)=N\NC(C)(C)C)c1 | > 100 µM | > 100 µM |  | > 100 µM | > 100 µM | > 100 µM | > 100 µM | > 100 µM |  |  |  |  |  |  |  |  | 
C=C(C)[C@@H]1CC[C@]2(C(=O)O)CC[C@]3(C)[C@H](CC[C@@H]4[C@@]5(C)CCC(N)C(C)(C)[C@@H]5CC[C@]43C)[C@@H]12 (stereo not given in full) | 3.55 µM |  |  | 3.07 µM |  | 7 µM |  | > 100 µM | 3.69 µM | 1.92 µM |  |  | 1.59 µM | 2.79 µM |  | 1.88 µM | 2.49 µM
COC1=CC(=O)C2(C=C1OC)OC[C@H]1Oc3c(ccc4c3C=CC(C)(C)O4)C(=O)[C@H]12 (stereo not given in full) | > 100 µM | 85.6 µM |  | > 100 µM | > 100 µM | > 100 µM | > 100 µM |  |  |  |  |  |  |  |  |  | 
O=[N+]([O-])c1ccc(N=P(c2ccccc2)(c2ccccc2)c2ccccc2)n2nnnc12 | > 100 µM | > 100 µM |  | > 100 µM | > 100 µM | 90.2 µM |  | 90.3 µM |  |  |  |  |  |  |  |  | 
